Test results from patent US10414763B2 (CANCER RESEARCH TECHNOLOGY LIMITED, priority 2014, dated 2019).

Target: T1, full-length human PKCι (Homo sapiens, UniProt P41743)
T1 construct: Recombinant, full-length human PKCι expressed in Sf21 insect cells is also commercially available; purchased EMD Millipore; host or cells: Sf21 insect cells (baculovirus)
T1 sequence (P41743 1-596): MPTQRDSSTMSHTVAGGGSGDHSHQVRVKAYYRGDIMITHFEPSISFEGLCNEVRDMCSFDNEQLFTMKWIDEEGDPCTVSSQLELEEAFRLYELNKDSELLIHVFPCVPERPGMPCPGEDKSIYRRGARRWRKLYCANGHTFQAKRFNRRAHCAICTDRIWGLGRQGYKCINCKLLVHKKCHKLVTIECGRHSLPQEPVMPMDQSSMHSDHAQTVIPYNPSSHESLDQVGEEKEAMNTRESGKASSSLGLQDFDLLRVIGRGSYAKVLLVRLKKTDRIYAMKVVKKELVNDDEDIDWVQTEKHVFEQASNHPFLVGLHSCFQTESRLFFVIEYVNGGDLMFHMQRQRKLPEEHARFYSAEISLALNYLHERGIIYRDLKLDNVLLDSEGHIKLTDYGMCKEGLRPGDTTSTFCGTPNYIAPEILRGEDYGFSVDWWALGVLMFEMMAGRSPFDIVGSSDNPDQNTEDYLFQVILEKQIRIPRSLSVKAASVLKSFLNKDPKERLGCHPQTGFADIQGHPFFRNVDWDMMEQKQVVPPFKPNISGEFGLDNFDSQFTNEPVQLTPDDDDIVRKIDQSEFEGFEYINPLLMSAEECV
Assay: PKCι IC50 IMAP fluorescence polarisation assay, full-length enzyme, 150 μM ATP
Type: biochemical
Details: read-out: IC50 in IMAP assay against full length PKCi at 150 μM ATP
Method in brief: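 IMAP fluorescence polarisation kinase assay: 15 pM baculovirus-expressed human PKCiota with 100 nM FAM-pseudosubstrate peptide and 150 μM ATP, 1 h at 25 °C. IMAP detection reagent then 2 h at 25 °C before FP measurement. Inhibition referenced to no-compound and no-enzyme controls for IC50 fitting.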

| SMILES | IC50 |
| --- | --- |
| c1ccc2c(c1)oc1nccc(-c3nc(N4CCNCC4)c4c(C5CC5)cncc4n3)c12 [Example 373, 4-(5-Cyclopropyl-4-piperazin-1-yl-pyrido[3,4-d]pyrimidin-2-yl)-benzofuro[2,3-b]pyridine] | 1000 to 10000 nM |
| c1ccc2c(c1)oc1nccc(-c3nc(NC4CCNCC4)c4c(C5CC5)cncc4n3)c12 [Example 374, 2-(benzofuro[2,3-b]pyridin-4-yl)-5-cyclopropyl-N-(4-piperidyl)pyrido[3,4-d]pyrimidin-4-amine] | 1000 to 10000 nM |
| CN(c1nc(-c2ccnc3[nH]c4ccccc4c23)nc2cncc(C3CCC3)c12)C1CC2NC(=O)OC2C1 (stereo not drawn) [Example 375, 5-{[5-Cyclobutyl-2-(9H-pyrido[2,3-b]indol-4-yl)-pyrido[3,4-d]pyrimidin-4-yl]-methyl-amino}-hexahydro-cyclopentoxazol-2-one] | 100 to 1000 nM |
| O=C1NC2CC(Nc3nc(-c4ccnc5[nH]c6ccccc6c45)nc4cncc(C5CCC5)c34)CC2O1 (stereo not drawn) [Example 376, 5-[5-Cyclobutyl-2-(9H-pyrido[2,3-b]indol-4-yl)-pyrido[3,4-d]pyrimidin-4-ylamino]-hexahydro-cyclopentoxazol-2-one] | 1000 to 10000 nM |
| NC(=O)C1CC(Nc2nc(-c3ccnc4[nH]c5ccccc5c34)nc3cncc(C4CCC4)c23)CC1N (stereo not drawn) [Example 377, 2-amino-4-[[5-cyclobutyl-2-(9H-pyrido[2,3-b]indol-4-yl)pyrido[3,4-d]pyrimidin-4-yl]amino]cyclopentane carboxamide] | 100 to 1000 nM |
| CC1(C)CNCC[C@@H]1Nc1nc(-c2ccnc(Nc3ccc4ccccc4n3)c2)nc2cncc(C3CC3)c12 [Example 378, {5-Cyclopropyl-2-[2-(quinolin-2-ylamino)-pyridin-4-yl]-pyrido[3,4-d]pyrimidin-4-yl}-((S)-3,3-dimethyl-piperidin-4-yl)-amine] | < 100 nM |
| CC1(C)CNCC[C@H]1Nc1nc(-c2ccnc(Nc3cc4ccccn4n3)c2)nc2cncc(C3CCC3)c12 [Example 379, {5-Cyclobutyl-2-[2-(pyrazolo[1,5-a]pyridin-2-ylamino)-pyridin-4-yl]-pyrido[3,4-d]pyrimidin-4-yl}-((R)-3,3-dimethyl-piperidin-4-yl)-amine] | < 100 nM |
| CC1(C)CNCC[C@@H]1Nc1nc(-c2ccnc(Nc3cc4ccccn4n3)c2)nc2cncc(C3CCC3)c12 [Example 380, {5-Cyclobutyl-2-[2-(pyrazolo[1,5-a]pyridin-2-ylamino)-pyridin-4-yl]-pyrido[3,4-d]pyrimidin-4-yl}-((S)-3,3-dimethyl-piperidin-4-yl)-amine] | < 100 nM |
| CC1(C)CNCC[C@@H]1Nc1nc(-c2ccnc(Nc3cc(F)ccn3)c2)nc2cncc(C3CCC3)c12 [Example 382, {5-Cyclobutyl-2-[2-(4-fluoro-pyridin-2-ylamino)-pyridin-4-yl]-pyrido[3,4-d]pyrimidin-4-yl}-((S)-3,3-dimethyl-piperidin-4-yl)-amine] | < 100 nM |
| COc1cccc(Nc2cc(-c3nc(N[C@H]4CCNCC4(C)C)c4c(C5CCC5)cncc4n3)ccn2)n1 [Example 383, {5-Cyclobutyl-2-[2-(6-methoxy-pyridin-2-ylamino)-pyridin-4-yl]-pyrido[3,4-d]pyrimidin-4-yl}-((S)-3,3-dimcthyl-piperidin-4-yl)-amine] | < 100 nM |
| CN(c1nc(-c2ccnc3[nH]c(-c4ncccc4F)cc23)nc2cncc(C3CC3)c12)[C@H]1CCNCC1(C)C [Example 384, {5-Cyclopropyl-2-[2-(3-fluoro-pyridin-2-yl)-1H-pyrrolo[2,3-b]pyridin-4-yl]-pyrido[3,4-d]pyrimidin-4-yl}-((S)-3,3-dimethyl-piperidin-4-yl)-methyl-amine] | < 100 nM |
| CN(c1nc(-c2ccnc3[nH]c(-c4cccnc4)cc23)nc2cncc(C3CC3)c12)[C@H]1CCNCC1(C)C [Example 385, [5-Cyclopropyl-2-(2-pyridin-3-yl-1H-pyrrolo[2,3-b]pyridin-4-yl)-pyrido[3,4-d]pyrimidin-4-yl]-((S)-3,3-dimethyl-piperidin-4-yl)-methyl-amine] | < 100 nM |
| CC1(C)CNCC[C@@H]1Nc1nc(-c2ccnc(Nc3ccccn3)c2)nc2cncc(C3CCC3)c12 [Example 388, {5-Cyclobutyl-2-[2-(pyridin-2-ylamino)-pyridin-4-yl]-pyrido[3,4-d]pyrimidin-4-yl}-((S)-3,3-dimethyl-piperidin-4-yl)-amine] | < 100 nM |
| CC1(C)CNCC[C@@H]1Nc1nc(-c2ccnc(Nc3ccc(F)cn3)c2)nc2cncc(C3CCC3)c12 [Example 389, {5-Cyclobutyl-2-[2-(5-fluoropyridin-2-ylamino)-pyridin-4-yl]-pyrido[3,4-d]pyrimidin-4-yl}-((S)-3,3-dimethyl-piperidin-4-yl)-amine] | < 100 nM |
| CC1(C)CNCC[C@@H]1Nc1nc(-c2ccnc(Nc3ncccc3F)c2)nc2cncc(C3CC3)c12 [Example 390, {5-Cyclopropyl-2-[2-(3-fluoro-pyridin-2-ylamino)-pyridin-4-yl]-pyrido[3,4-d]pyrimidin-4-yl}-((S)-3,3-dimethyl-piperidin-4-yl)-amine] | < 100 nM |
| CC1(C)CNCC[C@@H]1Nc1nc(-c2ccnc(Nc3ncc(F)cc3F)c2)nc2cncc(C3CC3)c12 [Example 391, {5-Cyclopropyl-2-[2-(3,5-difluoro-pyridin-2-ylamino)-pyridin-4-yl]-pyrido[3,4-d]pyrimidin-4-yl}-((S)-3,3-dimethyl-piperidin-4-yl)-amine] | < 100 nM |
| CC1(C)CNCC[C@@H]1Nc1nc(-c2ccnc(Nc3cc(F)ccn3)c2)nc2cncc(C3CC3)c12 [Example 392, {5-Cyclopropyl-2-[2-(4-fluoro-pyridin-2-ylamino)-pyridin-4-yl]-pyrido[3,4-d]pyrimidin-4-yl}-((S)-3,3-dimethyl-piperidin-4-yl)-amine] | < 100 nM |
| CC1(C)CNCC[C@@H]1Nc1nc(-c2ccnc(Nc3ccc(F)cn3)c2)nc2cncc(C3CC3)c12 [Example 393, {5-Cyclopropyl-2-[2-(5-fluoro-pyridin-2-ylamino)-pyridin-4-yl]-pyrido[3,4-d]pyrimidin-4-yl}-((S)-3,3-dimethyl-piperidin-4-yl)-amine] | < 100 nM |
| CC1(C)CNCC[C@@H]1Nc1nc(-c2ccnc3[nH]c(-c4ccccc4F)cc23)nc2cncc(C3CC3)c12 [Example 394, {5-Cyclopropyl-2-[2-(2-fluoro-phenyl)-1H-pyrrolo[2,3-b]pyridin-4-yl]-pyrido[3,4-d]pyrimidin-4-yl}-((S)-3,3-dimethyl-piperidin-4-yl)-amine] | < 100 nM |
| CC1(C)CNCC[C@@H]1Nc1nc(-c2ccnc3[nH]c(-c4cccnc4)cc23)nc2cncc(C3CC3)c12 [Example 395, [5-Cyclopropyl-2-(2-pyridin-3-yl-1H-pyrrolo[2,3-b]pyridin-4-yl)-pyrido[3,4-d]pyrimidin-4-yl]-((S)-3,3-dimethyl-piperidin-4-yl)-amine] | < 100 nM |
| CN(c1nc(-c2ccnc3[nH]c(-c4ccccc4F)cc23)nc2cncc(C3CC3)c12)[C@H]1CCNCC1(C)C [Example 396, {5-Cyclopropyl-2-[2-(2-fluoro-phenyl)-1H-pyrrolo[2,3-b]pyridin-4-yl]-pyrido[3,4-d]pyrimidin-4-yl}-((S)-3,3-dimethyl-piperidin-4-yl)-methyl-amine] | < 100 nM |
